Source: US12209102B2, “Heterocyclic compounds and uses thereof” (Kumquat Biosciences Inc., priority 2022, dated 2025)

Tests used:
GP2D cells = assay: Ras cellular assay, growth of cells with K-Ras G12D mutation (CellTiter-Glo); assay type: cell-based; settings: cell growth, Example 9, G12D mutation, read-out: IC50 against GP2D cells
A549 cells = assay: Ras cellular assay, growth of cells with K-Ras G12S mutation (CellTiter-Glo); assay type: cell-based; settings: Homo sapiens, cell growth, Example 9, G12S mutation, read-out: IC50 against A549 cells
Summary of the method: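 A549 cells (K-Ras G12S) in RPMI-1640 with 10% heat-inactivated FBS, seeded e.g. 800 per well in standard or ultra-low-attachment 384-well plates, treated next day with a dilution series (e.g. 10-point, 3-fold). Viability by CellTiter-Glo luminescence about 6 days later; IC50 from four-parameter fit.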

K-Ras G12S = molecular target: T1, K-Ras G12S (Homo sapiens, UniProt P01116, G12S); assay: HTRF resonance energy transfer assay, K-Ras G12S / SOS1 interaction; assay type: biochemical; settings: HTRF assay of Example 5; read-out: IC50 against K-Ras G12S
T1 construct: made in house; host or cells: E. coli BL21 (DE3)
Summary of the method: (§1)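 Read-out: HTRF 665/620 nm ratio (excitation 337 nm) after roughly 10 min or longer incubation, used to derive IC50. Donor anti-GST-Eu on GST-K-Ras; acceptor anti-6His-XL665 on His-hSOS1. Duplicate dose series from 10 μM down to 0.01 μM.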

K-Ras G12V = molecular target: T2, K-Ras G12V (Homo sapiens, UniProt P01116, G12V); assay: HTRF resonance energy transfer assay, K-Ras G12V / SOS1 interaction; assay type: biochemical; settings: HTRF assay of Example 5; read-out: IC50 against K-Ras G12V
T2 construct: made in house; host or cells: E. coli BL21 (DE3)
Summary of the method: as §1

K-Ras WT = molecular target: T3, K-Ras WT (Homo sapiens, UniProt P01116); assay: HTRF resonance energy transfer assay, K-Ras WT / SOS1 interaction; assay type: biochemical; settings: HTRF assay of Example 5; read-out: IC50 against K-Ras WT
T3 construct: made in house; host or cells: E. coli BL21 (DE3)
Summary of the method: as §1

K-Ras G12D = molecular target: T4, K-Ras G12D (Homo sapiens, UniProt P01116, G12D); assay: HTRF resonance energy transfer assay, K-Ras G12D / SOS1 interaction; assay type: biochemical; settings: HTRF assay of Example 5; read-out: IC50 against K-Ras G12D
T4 construct: made in house; host or cells: E. coli BL21 (DE3)
Summary of the method: as §1

SW620 cells = assay: Ras cellular assay, growth of cells with K-Ras G12V mutation (CellTiter-Glo); assay type: cell-based; settings: Homo sapiens, SW-620; cell growth, Example 9, G12V mutation; read-out: IC50 against SW620 cells
Summary of the method: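 SW620 (K-Ras G12V) cells, e.g. 800/well in RPMI-1640 with 10% heat-inactivated FBS on standard or ultra-low attachment plates, were dosed the day after plating with e.g. a 10-point 3-fold series. Viability by CellTiter-Glo luminescence about 6 days later; IC50 from four-parameter fit.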

T4 sequence (P01116 1-188 isoform P01116-2 G12D): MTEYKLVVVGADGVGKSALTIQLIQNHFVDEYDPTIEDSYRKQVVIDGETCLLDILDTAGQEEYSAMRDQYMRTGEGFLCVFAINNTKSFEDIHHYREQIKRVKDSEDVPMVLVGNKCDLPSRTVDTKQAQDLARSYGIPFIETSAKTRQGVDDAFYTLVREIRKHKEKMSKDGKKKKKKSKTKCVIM
T3 sequence (P01116 1-188 isoform P01116-2): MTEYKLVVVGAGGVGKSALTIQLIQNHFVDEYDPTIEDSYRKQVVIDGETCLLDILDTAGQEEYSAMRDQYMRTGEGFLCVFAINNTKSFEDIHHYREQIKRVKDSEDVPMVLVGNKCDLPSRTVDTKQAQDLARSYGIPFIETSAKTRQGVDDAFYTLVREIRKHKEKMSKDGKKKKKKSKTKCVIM
T2 sequence (P01116 1-188 isoform P01116-2 G12V): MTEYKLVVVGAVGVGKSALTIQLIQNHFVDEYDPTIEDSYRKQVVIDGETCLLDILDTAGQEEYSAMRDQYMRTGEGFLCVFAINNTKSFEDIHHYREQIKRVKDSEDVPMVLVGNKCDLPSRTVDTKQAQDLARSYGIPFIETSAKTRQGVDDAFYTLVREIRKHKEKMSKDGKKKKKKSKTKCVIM
T1 sequence (P01116 1-188 isoform P01116-2 G12S): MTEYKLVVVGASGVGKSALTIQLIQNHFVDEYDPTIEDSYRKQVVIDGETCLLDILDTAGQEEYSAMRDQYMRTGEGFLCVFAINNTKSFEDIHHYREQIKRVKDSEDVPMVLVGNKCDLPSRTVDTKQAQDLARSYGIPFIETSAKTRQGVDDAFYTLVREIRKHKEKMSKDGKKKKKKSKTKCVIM

| SMILES | IC50 (GP2D cells) [nM] | IC50 (A549 cells) [µM] | IC50 (K-Ras G12S) [nM] | IC50 (K-Ras G12V) [nM] | IC50 (K-Ras WT) [nM] | IC50 (K-Ras G12D) [nM] | IC50 (SW620 cells) [µM] |
| --- | --- | --- | --- | --- | --- | --- | --- |
| CN(C)C(=O)C1CC(N2CCOc3c(Cl)c(-c4ccc(F)c5sc(N)c(C#N)c45)c(F)c4nc(OC[C@@]56CCCN5C[C@H](F)C6)nc2c34)C1 (single isomer, unassigned) [Compound 640] | < 500 | < 5 |  |  |  |  |  |
| CC1COc2c(Cl)c(-c3ccc(F)c4sc(N)c(C#N)c34)c(F)c3nc(OC[C@@]45CCCN4C[C@H](F)C5)nc(c23)N1CC(F)F (single isomer, unassigned) [Compound 1073] | < 500 | < 5 |  |  |  |  |  |
| CCN1CCOc2c(Cl)c(-c3ccc(F)c4sc(N)c(C#N)c34)c(F)c3nc(OC[C@@]45CCCN4C[C@H](F)C5)nc1c23 [Compound 625, 2-amino-4-(8-chloro-4-ethyl-10-fluoro-2-(((2R,7aS)-2-fluorotetrahydro-1H-pyrrolizin-7a(5H)-yl)methoxy)-5,6-dihydro-4H-[1,4]oxazepino[5,6,7-de]quinazolin-9-yl)-7-fluorobenzo[b]thiophene-3-carbonitrile] | < 500 | < 5 | < 100 | < 100 | < 100 | < 100 |  |
| CC[C@H]1COc2c(Cl)c(-c3ccc(F)c4sc(N)c(C#N)c34)c(F)c3nc(OC[C@@]45CCCN4C[C@H](F)C5)nc(c23)N1CC(F)F [Compound 877, 2-amino-4-((5S)-8-chloro-4-(2,2-difluoroethyl)-5-ethyl-10-fluoro-2-(((2R,7aS)-2-fluorotetrahydro-1H-pyrrolizin-7a(5H)-yl)methoxy)-5,6-dihydro-4H-[1,4]oxazepino[5,6,7-de]quinazolin-9-yl)-7-fluorobenzo[b]thiophene-3-carbonitrile] | < 500 | < 5 |  |  |  |  |  |
| N#Cc1c(N)sc2c(F)ccc(-c3c(Cl)c4c5c(nc(OC[C@@]67CCCN6C[C@H](F)C7)nc5c3F)N(CC3CC3C#N)CCO4)c12 (stereo partly drawn) [Compound 962, 2-amino-4-(8-chloro-4-((2-cyanocyclopropyl)methyl)-10-fluoro-2-(((2R,7aS)-2-fluorotetrahydro-1H-pyrrolizin-7a(5H)-yl)methoxy)-5,6-dihydro-4H-[1,4]oxazepino[5,6,7-de]quinazolin-9-yl)-7-fluorobenzo[b]thiophene-3-carbonitrile] | < 500 | < 5 |  |  |  |  | < 5 |
| CC1Oc2c(Cl)c(-c3ccc(F)c4sc(N)c(C#N)c34)c(F)c3nc(OC[C@@]45CCCN4C[C@H](F)C5)nc(c23)N(CC(F)F)C1CC#N (stereo partly drawn) [Compound 1015, 2-amino-4-(8-chloro-5-(cyanomethyl)-4-(2,2-difluoroethyl)-10-fluoro-2-(((2R,7aS)-2-fluorotetrahydro-1H-pyrrolizin-7a(5H)-yl)methoxy)-6-methyl-5,6-dihydro-4H-[1,4]oxazepino[5,6,7-de]quinazolin-9-yl)-7-fluorobenzo[b]thiophene-3-carbonitrile] | < 500 | < 5 |  |  |  |  | < 5 |
| N#Cc1c(N)sc2c(F)ccc(-c3c(Cl)c4c5c(nc(OC[C@@]67CCCN6C[C@H](F)C7)nc5c3F)N(C3CCCC3O)CCO4)c12 (stereo partly drawn) [Compound 1017, 2-amino-4-(8-chloro-10-fluoro-2-(((2R,7aS)-2-fluorotetrahydro-1H-pyrrolizin-7a(5H)-yl)methoxy)-4-(2-hydroxycyclopentyl)-5,6-dihydro-4H-[1,4]oxazepino[5,6,7-de]quinazolin-9-yl)-7-fluorobenzo[b]thiophene-3-carbonitrile] | < 500 | < 5 |  |  |  |  |  |
| N#Cc1c(N)sc2c(F)ccc(-c3c(Cl)c4c5c(nc(OC[C@@]67CCCN6C[C@H](F)C7)nc5c3F)N(CC(F)F)C(CO)CO4)c12 (stereo partly drawn) [Compound 1037, 2-amino-4-(8-chloro-4-(2,2-difluoroethyl)-10-fluoro-2-(((2R,7aS)-2-fluorotetrahydro-1H-pyrrolizin-7a(5H)-yl)methoxy)-5-(hydroxymethyl)-5,6-dihydro-4H-[1,4]oxazepino[5,6,7-de]quinazolin-9-yl)-7-fluorobenzo[b]thiophene-3-carbonitrile] | < 500 | < 5 |  |  |  |  | < 5 |
| CC(C)(O)C1COc2c(Cl)c(-c3ccc(F)c4sc(N)c(C#N)c34)c(F)c3nc(OC[C@@]45CCCN4C[C@H](F)C5)nc(c23)N1CCC(F)F (stereo partly drawn) [Compound 1050, 2-amino-4-(8-chloro-4-(3,3-difluoropropyl)-10-fluoro-2-(((2R,7aS)-2-fluorotetrahydro-1H-pyrrolizin-7a(5H)-yl)methoxy)-5-(2-hydroxypropan-2-yl)-5,6-dihydro-4H-[1,4]oxazepino[5,6,7-de]quinazolin-9-yl)-7-fluorobenzo[b]thiophene-3-carbonitrile] | < 500 |  | < 100 | < 100 | < 100 | < 100 | < 5 |
| N#Cc1c(N)sc2c(F)ccc(-c3c(Cl)c4c5c(nc(OC[C@@]67CCCN6C[C@H](F)C7)nc5c3F)N([C@H]3CNC[C@H]3F)CCO4)c12 [Compound 1070, 2-amino-4-(8-chloro-10-fluoro-4-((3S,4R)-4-fluoropyrrolidin-3-yl)-2-(((2R,7aS)-2-fluorotetrahydro-1H-pyrrolizin-7a(5H)-yl)methoxy)-5,6-dihydro-4H-[1,4]oxazepino[5,6,7-de]quinazolin-9-yl)-7-fluorobenzo[b]thiophene-3-carbonitrile] | < 500 |  | < 100 | < 100 | < 100 | < 100 | < 5 |
| N#Cc1c(N)sc2c(F)ccc(-c3c(Cl)c4c5c(nc(OC[C@@]67CCCN6C[C@H](F)C7)nc5c3F)N[C@@H](C3(O)CC3)CO4)c12 [Compound 1076, 2-amino-4-((R)-8-chloro-10-fluoro-2-(((2R,7aS)-2-fluorotetrahydro-1H-pyrrolizin-7a(5H)-yl)methoxy)-5-(1-hydroxycyclopropyl)-5,6-dihydro-4H-[1,4]oxazepino[5,6,7-de]quinazolin-9-yl)-7-fluorobenzo[b]thiophene-3-carbonitrile] | < 500 |  | < 100 | < 100 | < 100 | < 100 | < 5 |
| CN1c2nc(OC[C@@]34CCCN3C[C@H](F)C4)nc3c(F)c(-c4ccc(F)c5sc(N)c(C#N)c45)c(Cl)c(c23)OC[C@@H]1CNC=O [Compound 1097, N-(((5S)-9-(2-amino-3-cyano-7-fluorobenzo[b]thiophen-4-yl)-8-chloro-10-fluoro-2-(((2R,7aS)-2-fluorotetrahydro-1H-pyrrolizin-7a(5H)-yl)methoxy)-4-methyl-5,6-dihydro-4H-[1,4]oxazepino[5,6,7-de]quinazolin-5-yl)methyl)formamide] | < 500 |  | < 100 | < 100 | < 100 | < 100 | < 5 |
| CC(O)C1COc2c(Cl)c(-c3ccc(F)c4sc(N)c(C#N)c34)c(F)c3nc(OC[C@@]45CCCN4C[C@H](F)C5)nc(c23)N1CC1CCNCC1 (stereo partly drawn) [Compound 1125, 2-amino-4-(8-chloro-10-fluoro-2-(((2R,7aS)-2-fluorotetrahydro-1H-pyrrolizin-7a(5H)-yl)methoxy)-5-(1-hydroxyethyl)-4-(piperidin-4-ylmethyl)-5,6-dihydro-4H-[1,4]oxazepino[5,6,7-de]quinazolin-9-yl)-7-fluorobenzo[b]thiophene-3-carbonitrile] | < 500 |  | < 100 | < 100 | < 100 | < 100 | < 5 |
| C[C@@H]1CCOc2c(Cl)c(-c3ccc(F)c4sc(N)c(C#N)c34)c(F)c3nc(OC[C@@]45CCCN4C[C@H](F)C5)nc(c23)N1 [Compound 1219, 2-amino-4-((5R)-9-chloro-11-fluoro-2-(((2R,7aS)-2-fluorotetrahydro-1H-pyrrolizin-7a(5H)-yl)methoxy)-5-methyl-4,5,6,7-tetrahydro-[1,5]oxazocino[4,3,2-de]quinazolin-10-yl)-7-fluorobenzo[b]thiophene-3-carbonitrile] | < 500 |  | < 100 | < 100 | < 100 | < 100 | < 5 |
| C[C@@H]1CCOc2c(Cl)c(-c3ccc(F)c4sc(N)c(C#N)c34)c(F)c3nc(OC[C@@]45CCCN4C[C@H](F)C5)nc(c23)N1C [Compound 1222, 2-amino-4-((R)-9-chloro-11-fluoro-2-(((2R,7aS)-2-fluorotetrahydro-1H-pyrrolizin-7a(5H)-yl)methoxy)-4,5-dimethyl-4,5,6,7-tetrahydro-[1,5]oxazocino[4,3,2-de]quinazolin-10-yl)-7-fluorobenzo[b]thiophene-3-carbonitrile] | < 500 |  | < 100 | < 100 | < 100 | < 100 | < 5 |
